One molecule from patent US20100074975A1, “Pharmaceutical composition for the prevention and treatment of liver disease comprising a lonicera caerulea L. Var. Edulis extract” (priority 2005, published 2010) can be followed below.

The structures appear in SMILES notation.

Assay [1] deals with HepG2 cells. The conditions noted are these: 48 hrs. The protocol:
HepG2 cells were seeded in a 96-well plate at a density of 1×10^4 cells per well and incubated in a culture medium supplemented with 10% FBS for 16 hrs. After the 96-well plate was washed with physiological saline, ethyl alcohol, which was diluted in a culture medium in amounts of 0, 0.5, 1.0, 1.5 and 2.0% (v/v), was added to each well in which HepG2 cells were cultured. After incubation for 48 hrs, the cell number in each well was measured using a SRB method.
The culture medium was removed, and the 96-well plate was washed with physiological saline. The cells in each well were then fixed with 70% acetone for 20 min. The fixed cells were dried, stained with an SRB solution for 30 min, and washed with a 1% acetic acid solution five times to eliminate unbound SRB. After the cells were dried again, 10 mM Tris was added to the cells to dissolve cellular proteins and unbound SRB, and absorbance was measured at 562 nm using a spectrophotometer. The results were expressed as a percentage by comparing the absorbance of each well treated with ethyl alcohol with that of a control well not treated with ethyl alcohol (FIG. 2).

Assay [2] relates to HepG2 cells. Put plainly: Restoration of growth of cells whose growth is suppressed by ethyl alcohol (SRB method). It is filed as cell-based, human. The conditions noted are these: HepG2, 1.5% ethyl alcohol for 24 hrs. The protocol:
After the 96-well plate was washed with physiological saline, ethyl alcohol, which was diluted in culture medium in 1.5% (v/v), was added to each well in which HepG2 cells were cultured. Cell damage was induced using ethyl alcohol for 24 hrs. Thereafter, the culture medium containing ethyl alcohol was removed, and the extract from L. caerulea fruits, which was diluted in culture medium in amounts of 0, 0.125, 0.25, 0.5 and 1 mg/ml, was added to each well. […] Cells in each well were then fixed with 70% acetone for 20 min. […] The absorbance of a well treated with ethyl alcohol alone and the absorbance of each well treated with alcohol plus the extract from L. caerulea fruits were compared with that of a control well which was not treated with ethyl alcohol or with the extract from L. caerulea fruits (FIG. 3).
The reduced absorbance increased in a manner that was dependent on the concentrations of the extract from L. caerulea fruits when the extract was administered at up to 0.5 mg/ml to the well treated with ethyl alcohol.
Thus, the degree of restoration of ethyl alcohol-induced cell growth damage by administration of the extract from L. caerulea fruits was calculated according to Equation 1, and the results are given in Table 1, below. […]

As to `CCO` [ethyl alcohol], in assay [1] (HepG2, ethyl alcohol at concentrations of 1.5% or higher), the “effect on cell number” value is “reduced cell number”. Moreover, the “effect on cell growth” value in assay [1] (HepG2, ethyl alcohol at concentrations of up to 1% (v/v)) is “stimulate cell growth”. In addition, the “absorbance reduced in comparison with the well not treated with ethyl alcohol” value in assay [2] was 22%.
